Experimental findings from ChEMBL document CHEMBL1201862, “PubChem BioAssay data set” (2004) are described below.

Structures are written as SMILES.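 Compound exposure: 48 hours, 5 concentrations, 96-well plates. GI50 is the concentration that inhibits growth by half.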 Active and inactive are the calls of the source. Cut-off read from the data, not from the text of the source: active = GI50 up to about 1.1 µM and inactive = higher. Some results are limits rather than exact numbers.

Holding throughout (assay): DTP human tumour cell line panel, 48 h
Experiment [1] has as its system HCT-15.
Experiment [2] deals with MDA-MB-435.
The test system of experiment [3] is RPMI-8226.
The test system of experiment [4] is NCI-H23.
Experiment [5] deals with OVCAR-3.
For experiment [6], the system named is PC-3.
The subject of experiment [7] is ACHN.
For experiment [8], the system named is SNB-75.
In experiment [9] the test system is M14.
Experiment [10] relates to HOP-92.
Experiment [11] has as its system IGROV-1.
In experiment [12] the test system is A549.
Experiment [13] relates to NCI-H522.
The subject of experiment [14] is NCI-H460.
Experiment [15] has as its system EKVX.
The subject of experiment [16] is OVCAR-8.
In experiment [17] the test system is DU-145.
Experiment [18] relates to HT-29.
The test system of experiment [19] is SK-MEL-5.
Experiment [20] deals with SF-539.

For `CCCCn1cnc2c(c(CC#N)nn2-c2ccccc2)c1=N`, the GI50 (commonly the concentration at which growth is held to half of that of the control) was 36.8 µM in experiment [1]; 32.3 µM (inactive) in experiment [2]; 27.4 µM (inactive) in experiment [3]; 51.9 µM (inactive) in experiment [4]; 63.7 µM (inactive) in experiment [5]; 36.8 µM (inactive) in experiment [6]. For the same compound, the GI50 in [7] was 66.1 µM (inactive); in experiment [8] it was 45.6 µM (inactive); in experiment [9], 53.2 µM (inactive); in experiment [10], 52.2 µM (inactive); in experiment [11], 68.9 µM (inactive); in experiment [12], 83.8 µM (inactive). Besides, the GI50 in experiment [13] is 43.1 µM (inactive); in [14], 39.9 µM (inactive); in experiment [15], 48.8 µM (inactive); in experiment [16], 41.4 µM (inactive); in experiment [17], 76 µM (inactive); in experiment [18], 33.4 µM (inactive). The GI50 in experiment [19] is 20.9 µM (inactive).
For `Cc1cn2c(/C=N/NC(=N)N)c(-c3ccc([N+](=O)[O-])cc3)nc2s1`, the GI50 was 1.46 µM in [1]; 1.57 µM (inactive) in [2]; 1.68 µM (inactive) in experiment [20]; 1.42 µM (inactive) in experiment [3]; 1.59 µM (inactive) in [4]; 1.65 µM (inactive) in experiment [5]. Besides, the GI50 is 1.4 µM (inactive) in experiment [6]; 1.49 µM (inactive) in [7]; 0.509 µM (active) in experiment [8]; 1.17 µM (inactive) in experiment [9]; 0.641 µM (active) in experiment [10]; 1.66 µM (inactive) in experiment [12]. The GI50 in experiment [14] was 1.76 µM (inactive); in [15], 0.338 µM (active); in experiment [16], 0.149 µM (active); in experiment [17] it was 2.49 µM (inactive); in experiment [18] it was 1.32 µM (inactive); in [19], 1.36 µM (inactive).
Turning to `CCOC(=O)c1csc(NC(=O)CCN2CCOCC2)n1`, the 50% growth inhibitory concentration (GI50) in [1] is 49.7 µM; in experiment [2], > 100 µM (inactive); in experiment [20], > 100 µM (inactive); in experiment [3], 43.3 µM (inactive); in experiment [4], > 100 µM (inactive); in [5] it was 39.6 µM (inactive). Further, the GI50 is 67.6 µM (inactive) in [6]; 44.5 µM (inactive) in [7]; 76.2 µM (inactive) in [9]; 69.3 µM (inactive) in experiment [10]; 41 µM (inactive) in [11]; > 100 µM (inactive) in [12]. For the same compound, the GI50 was > 100 µM (inactive) in experiment [14]; 77.3 µM (inactive) in experiment [15]; 29.8 µM (inactive) in experiment [16]; 44.7 µM (inactive) in experiment [17]; 36.5 µM (inactive) in [18]; 67.1 µM (inactive) in experiment [19].
`CCc1ccccc1NC(=O)/C=C/c1ccccc1`: the GI50 in [1] was > 100 µM; in experiment [2], > 100 µM (inactive); in experiment [20], > 100 µM (inactive); in [3] it was > 100 µM (inactive); in [4], > 100 µM (inactive); in experiment [5] it was > 100 µM (inactive). Moreover, the GI50 in experiment [6], in [7], in experiment [8], in experiment [9], in experiment [12] and in [13] was > 100 µM (inactive) throughout. Moreover, the GI50 in [14], in [15], in experiment [16], in experiment [17], in experiment [18] and in experiment [19] was > 100 µM (inactive) in each case.
As for `C[N+](C)(C)c1ncnc2c1ncn2C1CCCCO1` (stereo unspecified), the GI50 in [2], in [3], in [4], in experiment [5], in experiment [6] and in [7] was > 100 µM (inactive) throughout. In addition, the GI50 in experiment [8], in experiment [9], in experiment [10], in [11], in experiment [12] and in experiment [13] was > 100 µM (inactive) in each case. Moreover, the GI50 in experiment [14], in [15], in experiment [16], in experiment [17], in experiment [18] and in experiment [19] was > 100 µM (inactive) throughout.
With `CC(=O)NCCc1c(-c2[nH]c3ccccc3c2CCNC(C)=O)[nH]c2ccccc12`, the GI50 in [1] is > 100 µM; in experiment [2] it was > 100 µM (inactive); in experiment [20], 74.5 µM (inactive); in experiment [3], > 100 µM (inactive); in experiment [4], > 100 µM (inactive); in [5] it was > 100 µM (inactive). Also, the GI50 in [6] was > 100 µM (inactive); in [7], 66.7 µM (inactive); in [8], 47.6 µM (inactive); in experiment [10], 22.2 µM (inactive); in experiment [11], 24.6 µM (inactive); in [12] it was > 100 µM (inactive). Further, the GI50 in experiment [14] is 42.2 µM (inactive); in [15], > 100 µM (inactive); in experiment [16], 78.2 µM (inactive); in [17] it was > 100 µM (inactive); in experiment [18], > 100 µM (inactive); in [19], > 100 µM (inactive).
With `CCOC(=O)CC/C(C)=N\n1c(Cc2ccc(Cl)cc2)n[nH]c1=O`, the GI50 in [1] is > 100 µM; in [2] it was > 100 µM (inactive); in [20] it was > 100 µM (inactive); in experiment [3], > 100 µM (inactive); in [4], > 100 µM (inactive); in experiment [5] it was > 100 µM (inactive). Moreover, the GI50 in experiment [6], in experiment [7], in experiment [8], in experiment [9], in [11] and in experiment [12] was > 100 µM (inactive) each time. The GI50 was > 100 µM (inactive) in [13]; 86.1 µM (inactive) in experiment [14]; > 100 µM (inactive) in experiment [16]; > 100 µM (inactive) in [17]; > 100 µM (inactive) in [18]; > 100 µM (inactive) in experiment [19].
For the compound `CSc1c(C#N)c(O)n(-c2ccc(Cl)cc2)c(=O)c1C(C)=O`, the GI50 in experiment [1] is 27.3 µM; in [2], 88.3 µM (inactive); in experiment [20], 32.9 µM (inactive); in [3] it was 26 µM (inactive); in [4] it was 31.5 µM (inactive); in experiment [5] it was 48.3 µM (inactive). Further, the GI50 in experiment [6] is > 100 µM (inactive); in [8], 94.8 µM (inactive); in experiment [9], 89.9 µM (inactive); in experiment [12] it was 50.2 µM (inactive); in [13], 0.433 µM (active); in experiment [14] it was > 100 µM (inactive). For the same compound, the GI50 is > 100 µM (inactive) in [15]; 42.4 µM (inactive) in [16]; 70.6 µM (inactive) in experiment [17]; 34.8 µM (inactive) in experiment [18]; 89.1 µM (inactive) in experiment [19].
As for `CCOC(=O)c1ccc(Nc2cnc3ccc(C(F)(F)F)cc3n2)cc1`, the 50% growth inhibitory concentration (GI50) in experiment [1] was 14.8 µM; in experiment [2], 21.5 µM (inactive); in experiment [20], 28.1 µM (inactive); in experiment [3] it was 27.2 µM (inactive); in [4], 15 µM (inactive); in experiment [5], 19.5 µM (inactive). Also, the GI50 was 19.2 µM (inactive) in experiment [6]; 15.2 µM (inactive) in [7]; 17.9 µM (inactive) in [8]; 22.7 µM (inactive) in [9]; 6.18 µM (inactive) in experiment [10]; 15 µM (inactive) in [11]. Also, the GI50 in experiment [12] was 14.5 µM (inactive); in experiment [14] it was 14.2 µM (inactive); in [15] it was 24.6 µM (inactive); in experiment [16], 12.8 µM (inactive); in [17], 18.2 µM (inactive); in [18], 11.9 µM (inactive). Further, the GI50 in experiment [19] was 15.5 µM (inactive).
Turning to `COc1cccc(C2C3=C(COC3=O)Oc3cc4c(cc32)OCO4)c1` (stereo unspecified), the GI50 in experiment [1] is 0.0172 µM; in experiment [2] it was < 0.01 µM (active); in experiment [20] it was 0.0211 µM (active); in experiment [3], 0.0156 µM (active); in experiment [4] it was 0.0653 µM (active); in experiment [5] it was 0.0219 µM (active). Besides, the GI50 in experiment [6] is 0.0196 µM (active); in experiment [7] it was 0.0432 µM (active); in experiment [8] it was 0.0194 µM (active); in experiment [9], 0.0307 µM (active); in experiment [11] it was 0.0738 µM (active); in experiment [12], 0.0412 µM (active). Also, the GI50 in experiment [13] is < 0.01 µM (active); in experiment [14] it was 0.0267 µM (active); in experiment [15], 0.177 µM (active); in [16] it was 0.0421 µM (active); in experiment [17] it was 0.0375 µM (active); in [18], 0.0309 µM (active). Moreover, the GI50 in experiment [19] is 0.0175 µM (active).
With `CC(=O)O[C@H]1CCn2c3c(c(C)c21)C(=O)C(N1CC1)=C(C)C3=O`, the GI50 in experiment [1] was > 10 µM; in [2], > 10 µM (inactive); in experiment [20], > 10 µM (inactive); in experiment [3] it was > 10 µM (inactive); in experiment [4], 1.68 µM (inactive); in [5] it was > 10 µM (inactive). Besides, the GI50 in experiment [6] was > 10 µM (inactive); in experiment [7], > 10 µM (inactive); in experiment [8] it was 8.51 µM (inactive); in experiment [9] it was > 10 µM (inactive); in experiment [11] it was > 10 µM (inactive); in experiment [12], 3.19 µM (inactive). The GI50 in [13] is > 10 µM (inactive); in experiment [14] it was 3.52 µM (inactive); in experiment [15], > 10 µM (inactive); in experiment [16], > 10 µM (inactive); in experiment [17] it was 4.21 µM (inactive); in [18], 2.84 µM (inactive). The GI50 in [19] was 2.57 µM (inactive).
